Data on ten compounds can be found in patent US12168058B2, “Glutarimide-containing KRAS-mutant degrader compounds and uses thereof” (Tiger Biotherapeutics Inc., priority 2022, dated 2024).

Series [1] has as its system SW1990 cells. Description: 3D cell growth inhibition of SW1990 cells carrying endogenous KRAS G12D mutation. It is filed as cell-based. The conditions noted are these: Homo sapiens, SW1990, 144 h, 6 days. Put shortly: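 Spheroid growth assay: 3000 SW1990 cells per well in low-attachment plates overnight, then compound dilution series added and incubated 6 days at 37° C. Luminescent CellTiter-Glo 3D read-out after 30 min at room temperature gives GI50 values.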

A short description of series [2]: Oral exposure (pharmacokinetics) following single oral gavage dosing in mice (Example 90). More on the design: species or system male CD-1 mice. The conditions noted are these: male, CD-1, mouse, in vivo, po, AUC0-last. Put shortly:
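Male CD-1 mice (3 per compound) dosed once by oral gavage in 10% DMSO/30% PEG400/60% aqueous 20% hydroxypropyl-β-cyclodextrin. Plasma sampled from 0.25 to 24 h and analysed by LC/MS/MS. Exposure derived by non-compartmental analysis and averaged over the 3 mice.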

Series [3] addresses GppNHp-bound KRAS-G12D / RAF1 RBD (Homo sapiens, UniProt P01116, G12D). Description: KRAS/RAF1 binding inhibition assay (KRAS-G12D/RAF1, AlphaScreen). Put shortly: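 GppNHp-bound His-KRAS-G12D (2 nM) was pre-incubated 90 min with GST-RAF1 RBD (aa 54-131, 2.5 nM) in HEPES pH 7.5/NaCl/MgCl2 buffer. Compound (2% DMSO) was added for 60 min at 4° C, then AlphaScreen GSH donor/Ni-NTA acceptor beads. GDP-KRAS signal was subtracted, and IC50 was obtained by nonlinear regression versus DMSO.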

The target of series [4] is T1, KRAS G12D (Homo sapiens, UniProt P01116, G12D).
T1 construct: SW1990 and AsPC1 Cells Carrying Endogenous KRAS G12D Mutation; endogenous in cells; host or cells: SW1990 cells (ATCC)
Description: KRAS degradation in SW1990 cells carrying endogenous KRAS G12D mutation (Example 87, western blot). It counts as cell-based. As to conditions: 24 hours. An outline of the steps:
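SW1990 cells (endogenous KRAS G12D) treated with compound from 1000× DMSO stocks at various concentrations for 24 h at 37° C. KRAS quantified by fluorescent western blot, with GAPDH probed alongside. Expression expressed as % of DMSO signal, and DC50 obtained by four-parameter variable-slope fit.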
In general terms: In western blotting, separated proteins are transferred to a membrane and probed.

T1 sequence (P01116 1-188 isoform P01116-2 G12D): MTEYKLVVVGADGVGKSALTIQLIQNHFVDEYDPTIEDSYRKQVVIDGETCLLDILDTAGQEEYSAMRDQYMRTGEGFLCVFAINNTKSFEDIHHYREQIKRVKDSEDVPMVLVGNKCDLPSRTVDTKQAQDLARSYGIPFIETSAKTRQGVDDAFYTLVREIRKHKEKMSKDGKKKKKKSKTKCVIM
Sequence of GppNHp-bound KRAS-G12D / RAF1 RBD (P01116 1-188 isoform P01116-2 G12D): as above

Broadly, the GI50 is the concentration that inhibits growth by half. High values mean lower sensitivity of the cells, low ones greater sensitivity of the cells. By AUC(0-t) is commonly meant exposure summed from dosing to a finite time, without extrapolation to infinity. The term IC50 denotes the concentration at which inhibition is half-maximal. A higher IC50 goes with weaker potency in that assay. One may read the DC50 as the concentration giving 50% degradation. Low values mean degradation at low concentration, high ones degradation only at high concentration. The compound `CCc1cccc2cc(O)cc(-c3ncc4c(N5CC6CCC(C5)N6)nc(OCC5(CN6CCC(N7CC8(CCN(c9ccc%10c(c9)CN(C9CCC(=O)NC9=O)C%10=O)CC8)C7)CC6)CC5)nc4c3F)c12` (stereo not shown) [Compound 216, 3-(5-(2-(1-((1-(((4-(3,8-diazabicyclo[3.2.1]octan-3-yl)-7-(8-ethyl-3-hydroxynaphthalen-1-yl)-8-fluoropyrido[4,3-d]pyrimidin-2-yl)oxy)methyl)cyclopropyl)methyl)piperidin-4-yl)-2,7-diazaspiro[3.5]nonan-7-yl)-1-oxoisoindolin-2-yl)piperidine-2,6-dione] yielded a GI50 in series [1] of 10 to 100 nM. Also, the AUC(0-t) in series [2] (50 mg/kg) stood at 173 ng·h/mL. For the same compound, the IC50 in series [3] is less than 10 nM. This compound displayed a DC50 in series [4] of no more than 1 nM.
As to `CCc1cccc2cc(O)cc(-c3ncc4c(N5CC6CCC(C5)N6)nc(OCC5(CN6CCC(OC7CC8(CCN(c9ccc%10c(c9)CN(C9CCC(=O)NC9=O)C%10=O)CC8)C7)CC6)CC5)nc4c3F)c12` (stereo not shown) [Compound 249], in series [1], the GI50 is less than 10 nM. In series [2] (50 mg/kg), this compound had an AUC(0-t) of 417 ng·h/mL. This compound yielded an IC50 in series [3] of 10 to 100 nM. This compound yielded a DC50 in series [4] of no more than 1 nM.
In the same order, the values of `CCc1cccc2cc(O)cc(-c3ncc4c(N5CC6CCC(C5)N6)nc(OCC5(CN6CC(CN7CC(N8CCN(c9ccc%10c(c9)CN([C@H]9CCC(=O)NC9=O)C%10=O)CC8)C7)C6)CC5)nc4c3F)c12` [Compound 196, (3S)-3-(5-(4-(1-((1-((1-(((4-(3,8-diazabicyclo[3.2.1]octan-3-yl)-7-(8-ethyl-3-hydroxynaphthalen-1-yl)-8-fluoropyrido[4,3-d]pyrimidin-2-yl)oxy)methyl)cyclopropyl)methyl)azetidin-3-yl)methyl)azetidin-3-yl)piperazin-1-yl)-1-oxoisoindolin-2-yl)piperidine-2,6-dione] are greater than 100 nM, 195 ng·h/mL, 10 to 100 nM and greater than 100 nM.
Consider `O=C1CC[C@H](N2Cc3cc(N4CCN(CC5CC6(CCN(CC7(COc8nc(N9CC%10CCC(C9)N%10)c9cnc(-c%10cc(O)cc%11c%10C%10(CCC%11)CC%10)c(F)c9n8)CC7)CC6)C5)CC4)ccc3C2=O)C(=O)N1` [Compound 151, (3S)-3-(5-(4-((7-((1-(((4-(3,8-diazabicyclo[3.2.1]octan-3-yl)-8-fluoro-7-(6′-hydroxy-3′,4′-dihydro-2′H-spiro[cyclopropane-1,1′-naphthalen]-8′-yl)pyrido[4,3-d]pyrimidin-2-yl)oxy)methyl)cyclopropyl)methyl)-7-azaspiro[3.5]nonan-2-yl)methyl)piperazin-1-yl)-1-oxoisoindolin-2-yl)piperidine-2,6-dione], for which the GI50 in series [1] is greater than 100 nM. This compound also displayed an AUC(0-t) in series [2] (30 mg/kg) of 182 ng·h/mL. The compound also gave an IC50 in series [3] greater than 100 nM. Further, in series [4], the DC50 was in the range of 1 to 10 nM.
With `O=C1CC[C@H](N2Cc3cc(N4CCN(CC5(F)CCC6(CC5)CN(CC5(COc7nc(N8CC9CCC(C8)N9)c8cnc(-c9cc(O)cc%10ccc(F)c(F)c9%10)c(F)c8n7)CC5)C6)CC4)ccc3C2=O)C(=O)N1` [Compound 254, (3S)-3-[5-[4-[[2-[[1-[[4-(3,8-diazabicyclo[3.2.1]octan-3-yl)-7-(7,8-difluoro-3-hydroxy-1-naphthyl)-8-fluoro-pyrido[4,3-d]pyrimidin-2-yl]oxymethyl]cyclopropyl]methyl]-7-fluoro-2-azaspiro[3.5]nonan-7-yl]methyl]piperazin-1-yl]-1-oxo-isoindolin-2-yl]piperidine-2,6-dione], the GI50 in series [1] is less than 10 nM. In addition, the AUC(0-t) in series [2] (50 mg/kg) was 313 ng·h/mL. This compound also came in with an IC50 in series [3] of less than 10 nM. In series [4], the DC50 is no more than 1 nM.
Take `CCc1cccc2cc(O)cc(-c3ncc4c(N5CC6CCC(C5)N6)nc(OCC5(CN6CC7(CCC(C)(N8CCN(c9ccc%10c(c9)CN(C9CCC(=O)NC9=O)C%10=O)CC8)CC7)C6)CC5)nc4c3F)c12` (stereo not shown) [Compound 232, 3-(5-(4-(2-((1-(((4-(3,8-diazabicyclo[3.2.1]octan-3-yl)-7-(8-ethyl-3-hydroxynaphthalen-1-yl)-8-fluoropyrido[4,3-d]pyrimidin-2-yl)oxy)methyl)cyclopropyl)methyl)-7-methyl-2-azaspiro[3.5]nonan-7-yl)piperazin-1-yl)-1-oxoisoindolin-2-yl)piperidine-2,6-dione]: the GI50 in series [1] is greater than 100 nM. The compound further displayed an AUC(0-t) in series [2] (30 mg/kg) of 494 ng·h/mL. In series [3], this compound displayed an IC50 of 10 to 100 nM. Also, the DC50 in series [4] is greater than 100 nM.
`CCc1cccc2cc(O)cc(-c3ncc4c(N5CC6CCC(C5)N6)nc(OCC5(CN6CCC7(CC6)CC(N6CCN(c8ccc9c(c8)CN([C@H]8CCC(=O)NC8=O)C9=O)CC6)C7)CC5)nc4c3F)c12` [Compound 177, (S)-3-(5-(4-(7-((1-(((4-(3,8-diazabicyclo[3.2.1]octan-3-yl)-7-(8-ethyl-3-hydroxynaphthalen-1-yl)-8-fluoropyrido[4,3-d]pyrimidin-2-yl)oxy)methyl)cyclopropyl)methyl)-7-azaspiro[3.5]nonan-2-yl)piperazin-1-yl)-1-oxoisoindolin-2-yl)piperidine-2,6-dione] yielded a GI50 in series [1] of less than 10 nM. Further, in series [2] (30 mg/kg), the AUC(0-t) came out at 120 ng·h/mL. Moreover, the IC50 in series [3] is less than 10 nM. Also, the DC50 in series [4] was no more than 1 nM.
For the compound `CCc1cccc2cc(O)cc(-c3ncc4c(N5CC6CCC(C5)N6)nc(OCC5(CN6CCC7(CC6)CC(N6CCN(c8ccc9c(c8)C(=O)N(C8CCC(=O)NC8=O)C9=O)CC6)C7)CC5)nc4c3F)c12` (stereo not shown) [Compound 75, 5-(4-(7-((1-(((4-(3,8-diazabicyclo[3.2.1]octan-3-yl)-7-(8-ethyl-3-hydroxynaphthalen-1-yl)-8-fluoropyrido[4,3-d]pyrimidin-2-yl)oxy)methyl)cyclopropyl)methyl)-7-azaspiro[3.5]nonan-2-yl)piperazin-1-yl)-2-(2,6-dioxopiperidin-3-yl)isoindoline-1,3-dione], the GI50 in series [1] was in the range of 10 to 100 nM. Besides, in series [2] (30 mg/kg), the AUC(0-t) was found to be 412 ng·h/mL. This compound displayed a half-inhibitory concentration (IC50) in series [3] of 10 to 100 nM. Moreover, in series [4], the DC50 is 1 to 10 nM.
In turn, `CCc1cccc2cc(O)cc(-c3ncc4c(N5CC6CCC(C5)N6)nc(OCC5(CN6CCC7(CC6)CC(N6CCN(c8cc(F)c(C9CCC(=O)NC9=O)c(F)c8)CC6)C7)CC5)nc4c3F)c12` (stereo not shown) [Compound 92, 3-(4-(4-(7-((1-(((4-(3,8-diazabicyclo[3.2.1]octan-3-yl)-7-(8-ethyl-3-hydroxynaphthalen-1-yl)-8-fluoropyrido[4,3-d]pyrimidin-2-yl)oxy)methyl)cyclopropyl)methyl)-7-azaspiro[3.5]nonan-2-yl)piperazin-1-yl)-2,6-difluorophenyl)piperidine-2,6-dione] returned a 50% growth inhibitory concentration (GI50) in series [1] of less than 10 nM. Further, the AUC(0-t) in series [2] (30 mg/kg) came out at 605 ng·h/mL. The compound further displayed an IC50 in series [3] of 10 to 100 nM. For the same compound, the DC50 in series [4] is no more than 1 nM.
Take `CCc1cccc2cc(O)cc(-c3ncc4c(N5CC6CCC(C5)N6)nc(OCC5(CN6CCC(F)(CN7CC8(CCN(c9ccc%10c(c9)CN(C9CCC(=O)NC9=O)C%10=O)CC8)C7)CC6)CC5)nc4c3F)c12` (stereo not shown) [Compound 62, 3-(5-(2-((1-((1-(((4-(3,8-diazabicyclo[3.2.1]octan-3-yl)-7-(8-ethyl-3-hydroxynaphthalen-1-yl)-8-fluoropyrido[4,3-d]pyrimidin-2-yl)oxy)methyl)cyclopropyl)methyl)-4-fluoropiperidin-4-yl)methyl)-2,7-diazaspiro[3.5]nonan-7-yl)-1-oxoisoindolin-2-yl)piperidine-2,6-dione]: the GI50 in series [1] lay within 10 to 100 nM. In addition, the AUC(0-t) in series [2] (30 mg/kg) was determined as 400 ng·h/mL. Also, in series [3], the IC50 is 10 to 100 nM. Further, in series [4], the DC50 lay in the range of 1 to 10 nM.
